Laboratory results taken from PMC12389170, “N-Degron-Based PROTAC Targeting PLK1: A Potential Therapeutic Strategy for Cervical Cancer” (Pharmaceutics, 2025).
Non-standard residues stand in square brackets, D forms with d. Residues, ends and D or L forms follow the SMILES beside them. No end group written: not given here. *: point of attachment. n‑octylphenyl = n-octylphenyl group on the histidine (alkylphenyl side chain at His); His(π-(CH2)8Ph) = N[C@@H](Cc1cncn1CCCCCCCCc1ccccc1)C(=O)O; pT = C[C@@H](OP(=O)(O)O)[C@H](N)C(=O)O; Cbz = O=C(OCc1ccccc1)*; Ahx = NCCCCCC(=O)O

What was measured:
[1] = tested on: cervical carcinoma; details: advanced or recurrent cervical carcinoma, limited owing to chemoresistance; cited from earlier work
From the text: According to the WHO, cervical cancer was the fourth most common cancer among women globally in 2022, with an estimated 660,000 new cases. Cervical cancer remains a considerable health threat, with 94% of the 350,000 deaths occurring in low- and middle-income countries. Chemotherapy, particularly cisplatin, is the primary treatment for advanced or recurrent cervical carcinoma. However, the response rate is limited to approximately 23% owing to chemoresistance. In addition, carboplatin, another platinum-based chemotherapy, is often used as an alternative for patients intolerant to c ...

[2] = molecular target: T1, PLK1 PBD (Mus musculus, UniProt Q07832); assay: Isothermal titration calorimetry (ITC) of PLK1 PBD with NC1; details: 25 °C, PLK1 PBD 20 µM in cell, NC1 200 µM in syringe, 20 mM HEPES pH 7.5, 200 mM NaCl, 5% DMSO, one-site model, read-out: Kd, binding affinity between NC1 and PLK1 PBD
T1 construct: (Swiss Prot entry Q07832, residues 367–603); 6XHis (N); TEV protease cleavage site (N); made in house; pET28a vector and IPTG induction point to E. coli (inferred)
Protocol: The mouse PLK1 in Polo box domain (PBD) (Swiss Prot entry Q07832, residues 367–603) was expressed as a recombinant protein containing an N-terminal 6XHis tag in the pET28a vector and a tobacco etch virus (TEV) protease cleavage was engineered between the affinity tag and PLK1 PBD. PLK1 PBD protein expression was induced by adding 0.1 mM IPTG and incubating the cells overnight at 18 °C. Following induction, the cells were collected by centrifugation and lysed via sonication after being resuspended in buffer composed of 20 mM HEPES (pH 7.5), 200 mM NaCl, 2 mM β-mercaptoethanol, and 1 mM PMSF. The lysate was clarified by centrifugation at 18,000 rpm for 40 min at 4 °C. The resulting supernatant was subjected to immobilized metal affinity chromatography (IMAC) using a Ni^2+-NTA HiTrap column (GE Healthcare), and the protein was eluted using an imidazole gradient ranging from 25 to 500 mM. For further purification, size-exclusion chromatography was conducted on a HiLoad 26/60 Superdex-75 column equilibrated with 20 mM HEPES (pH 7.2), 150 mM NaCl, and 2 mM DTT. PLK1 PBD protein was purified the purity of the proteins at each stage was checked on 15% SDS-PAGE. The purified PLK1 PBD protein was concentrated to 10 mg/mL using a VIVASPIN20 (Sartorius, Göttingen, Germany) concentrator and stored at −80 °C until use. […]

[3] = tested on: HeLa cells
[4] = tested on: HeLa xenograft cervical cancer; assay: In vivo antitumor activity, HeLa xenograft mouse model; details: nude mice, 4 mg/kg tail vein every 3-4 d for 29 d, n = 4
Protocol: The antitumor efficacy of NC1 was assessed in a HeLa xenograft mouse model, as reported. Briefly, 5 × 10^6 HeLa cells were subcutaneously injected into the right thigh region of immunodeficient nude mice. When tumors reached an approximate volume of 100 mm^3 (calculated using the formula: volume = 0.52 × length × width^2), mice were randomly assigned to treatment groups. NC1 (4 mg/kg) or PBS (vehicle control) was administered via tail vein injection at intervals of 3–4 days over a period of 29 days. Tumor volumes were measured regularly using calipers. All animal procedures were approved by the KBSI Institutional Animal Care and Use Committee (Protocol No. KBSI-IACUC-24-15) and were conducted in accordance with institutional and governmental regulations.

[5] = molecular target: T2, PLK1 (Homo sapiens, UniProt P53350); assay: PLK1 protein degradation in HeLa cells by immunoblotting; type: cell-based; details: NC1 24 h, 5 µM MG132 for 8 h
T2 construct: cells were lysed and total proteins were extracted for immunoblot analysis of PLK1 expression; endogenous in cells; host or cells: HeLa
T2 sequence (P53350 whole entry): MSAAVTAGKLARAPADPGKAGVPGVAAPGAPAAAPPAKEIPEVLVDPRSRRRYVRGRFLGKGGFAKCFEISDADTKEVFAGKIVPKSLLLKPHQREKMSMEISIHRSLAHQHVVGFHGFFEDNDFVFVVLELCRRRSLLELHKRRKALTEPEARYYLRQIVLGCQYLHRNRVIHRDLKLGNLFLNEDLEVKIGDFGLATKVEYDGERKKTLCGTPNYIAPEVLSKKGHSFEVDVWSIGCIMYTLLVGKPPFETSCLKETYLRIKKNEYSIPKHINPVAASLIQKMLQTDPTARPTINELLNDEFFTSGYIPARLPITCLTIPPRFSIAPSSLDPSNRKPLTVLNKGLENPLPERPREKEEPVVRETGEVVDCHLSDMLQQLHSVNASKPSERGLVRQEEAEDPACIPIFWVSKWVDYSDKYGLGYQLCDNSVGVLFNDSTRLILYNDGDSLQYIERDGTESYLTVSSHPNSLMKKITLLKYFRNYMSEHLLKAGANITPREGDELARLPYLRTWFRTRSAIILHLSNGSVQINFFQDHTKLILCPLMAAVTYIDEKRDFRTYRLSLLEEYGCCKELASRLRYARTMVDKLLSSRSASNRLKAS
Protocol: HeLa cells were seeded in 12-well plates with 1 × 10^5 cells per well and allowed to stay for overnight. Various concentrations (0, 1, 2, 3, 4, and 5 µM) of NC1 were added to HeLa cells in 12-well plates and incubated for 24 h. An amount of 5 µM of MG132 was added to the cells and incubated for 8 h to evaluate the proteasome inhibition. before harvesting. Following treatment, cells were lysed and total proteins were extracted for immunoblot analysis of PLK1 expression. Protein samples were separated by SDS-PAGE and transferred onto PVDF membranes. PLK1 was detected using a mouse-derived monoclonal antibody, with β-actin used as an internal control to ensure equal loading.

[6] = tested on: HeLa cells; assay: Fluorescence apoptosis assay (LIVE/DEAD kit); type: cell-based; details: 6 µM, 24 h, LIVE/DEAD staining
[7] = tested on: HeLa cells; assay: Morphological assessment by phase contrast microscopy; type: cell-based; details: 6 µM, 30 h
[8] = tested on: HeLa cells; assay: G2/M phase cell cycle arrest by flow cytometry (PI); type: cell-based; details: 6 µM, 24 h
Protocol: HeLa cells (3.5 × 10^5 cells/well) were seeded into 6-well plates and grown to 80–90% confluence. […] Both medium and floating cells were collected, washed with PBS three times, and fixed in 70% cold ethanol. Further, cells were washed again with PBS and stained with a solution containing PI (1 µg/mL) and RNase A (1 µg/mL) at 37 °C for 30 min. The stained cells were analyzed using a CytoFLEX flow cytometer (Beckman Coulter, Brea, CA, USA), and data were processed with FlowJo v10.10 [10].

[9] = molecular target: T3, NC1 (Arg12-Ahx-PLH(n-octylphenyl)SpT PROTAC peptide) (synthetic construct); assay: ITC
T3 chain: RRRRRRRRRRRR[Ahx]PLH(n‑octylphenyl)S[pT]-NH2

Molecule: N.N.[Cl][Pt][Cl] [cisplatin]
- Response rate [1]: approximately 23%

Molecule: CC(C)C[C@H](NC(=O)[C@@H]1CCCN1C(=O)CCCCCNC(=O)[C@H](CCCNC(=N)N)NC(=O)[C@H](CCCNC(=N)N)NC(=O)[C@H](CCCNC(=N)N)NC(=O)[C@H](CCCNC(=N)N)NC(=O)[C@H](CCCNC(=N)N)NC(=O)[C@H](CCCNC(=N)N)NC(=O)[C@H](CCCNC(=N)N)NC(=O)[C@H](CCCNC(=N)N)NC(=O)[C@H](CCCNC(=N)N)NC(=O)[C@H](CCCNC(=N)N)NC(=O)[C@H](CCCNC(=N)N)NC(=O)[C@@H](N)CCCNC(=N)N)C(=O)N[C@@H](Cc1cncn1CCCCCCCCc1ccccc1)C(=O)N[C@@H](CO)C(=O)N[C@H](C(N)=O)[C@@H](C)OP(=O)(O)O [NC1] (H-RRRRRRRRRRRR[Ahx]PL[His(π-(CH2)8Ph)]S[pT]-NH2)
- Kd [2]: 6.06 µM
- IC50 ([3]; read-out: IC50 for cancer cell viability, MTT, 24 h): 5.23 µM
- Body weight of tumor-bearing mice [4]: remained constant

Molecule: CC(C)C[C@@H](C=O)NC(=O)[C@H](CC(C)C)NC(=O)[C@H](CC(C)C)NC(=O)OCc1ccccc1 [MG132] (Cbz-Leu-Leu-Leu-aldehyde)
- Effect of proteasome inhibitor co-treatment on NC1-induced PLK1 degradation [5]: significantly reduced degradation

Molecule: PLH(n-octylphenyl)SpT [4j]
- Apoptotic (dead, red) cells in fluorescence images [6]: few apoptotic red cells
- Morphological changes of HeLa cells [7]: did not induce notable morphological changes
- Effect on cell viability ([3]; MTT, 24 h, up to 12 µM): did not significantly affect cell viability
- G1 cell population [8]: 75.88
- G2/M cell population [8]: 14.68
- Increase in G2/M cell population compared with the control [8]: 2.38%
- S cell population [8]: 5.47
- SubG1 cell population [8]: 3.97

B1: PLK1 367-603 (protein)
chain: NEAIECHLSDLLQQLTSVNASKPSERGLVRQEEAEDPACIPIFWVSKWVDYSDKYGLGYQLCDNSVGVLFNDSTRLILYNDGDSLQYIERDGTESYLTVSSHPNSLMKKITLLNYFRNYMSEHLLKAGANITPREGDELARLPYLRTWFRTRSAIILHLSNGTVQINFFQDHTKLILCPLMAAVTYINEKRDFQTYRLSLLEEYGCCKELASRLRYARTMVDKLLSSRSASNRLKAS
- Kd [9]: 6.06 µM
